{"source": "patent US5739283A", "about": "“Prevention of invasive pulmonary aspergillosis with serine proteinase inhibitors” (The Ohio State Research Foundation, priority 1995, dated 1998)", "key": {"[1]": {"test_system": "CC(C)C[C@H](NC(=O)[C@@H]1CCCN1C(=O)[C@H](C)NC(=O)[C@H](C)NC(=O)CCC(=O)O)C(=O)Nc1ccc([N+](=O)[O-])cc1", "assay": "purified protein, by the assay type", "conditions": "other: 22° C., pH 8.0, Lineweaver-Burk plot", "procedure": "(§3) First the Km values of the elastolytic serine proteases from A. fumigatus and A. flavus were calculated. […] The Km of the elastolytic serine proteases from A. fumigatus and A. flavus were determined using the synthetic chromogenic molecule Suc-Ala-Ala-Pro-Leu-pNa as a substrate. Reaction mixtures were prepared containing 5 μm of various concentrations of the chromogenic substrate dissolved in dimethyl sulfoxide, 990 μm of 0.1M Tris-HCl, buffer pH 8.0, and 5 μm of the aspergillus protease (0.65 mg/ml). The release of pNa from the substrate and the subsequent increase in absorbance of the reaction mixture at 410 nm was monitored at 22° C. for 10 minutes using a Hewlett Packard 8451A diode array spectrophotometer. The initial rates of the enzymatic reaction at 22° C. were then determined for each concentration of substrate and the reciprocals plotted on a Lineweaver-Burk plot.\n(§4) Next the ability of the reversible subtilisin-type inhibitors Barley ASI, purified SSI, and recombinant SSI and of the reversible chymotrypsin-type inhibitors Eglin C, potato protease I1, and potato protease I2 to block hydrolysis of the synthetic chromogenic substrate by the aspergillus elastolytic serine proteases was evaluated. Various concentrations of each inhibitor were pre-incubated for 5 minutes in samples containing the buffer and protease. […]"}, "[2]": {"target": "T1, A. flavus Serine Protease (Aspergillus flavus, UniProt P35211)", "T1 construct": "The extracellular serine proteases of A. fumigatus and A. flavus were purified from 5 day cultures; endogenous in cells; host or cells: Aspergillus flavus 5-day culture, extracellular fluid, bacitracin-Sepharose 4B", "T1 sequence (P35211 122-403)": "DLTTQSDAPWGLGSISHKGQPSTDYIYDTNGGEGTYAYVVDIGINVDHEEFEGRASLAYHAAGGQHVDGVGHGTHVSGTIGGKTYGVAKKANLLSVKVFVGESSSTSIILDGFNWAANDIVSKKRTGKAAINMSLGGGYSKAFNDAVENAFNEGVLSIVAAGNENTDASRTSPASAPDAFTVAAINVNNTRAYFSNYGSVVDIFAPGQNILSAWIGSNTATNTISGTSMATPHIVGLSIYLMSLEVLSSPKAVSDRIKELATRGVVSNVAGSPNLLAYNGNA", "assay": "Residual serine protease activity after preincubation with serine protease inhibitors", "assay_type": "biochemical", "conditions": "for Prevention of hydrolysis of Suc-Ala-Ala-Pro-Leu-pNA by A. flavus serine protease (in words): summary of Table 3", "description": "(§1) The serine protease inhibitors 4-carboxamido-substituted cephem (L-658,758), (S-(R*,S*))-4-((3,3-diethyl-1-((1-(4-methyl-phenyl)butylamino)carbonyl)-4-oxo-2-azetidinyl)oxy)-benzeneacetic acid 2-amino-2-methyl-1-propanol salt (L-680, 833) are known to irreversibly bind to the active site of the elastolytic serine protease obtained from neutrophils. It is also known that the serine protease inhibitor PMSF irreversibly binds to the active site of all serine proteases. The ability of the serine protease inhibitors L-658,758 and L-680,833, both of which were obtained from Merck Chemical Company, Rahway, N.J., and PMSF to block the proteolytic activity of the elastolytic serine proteases from Aspergillus fumigatus and Aspergillus flavus were tested as follows.\n(§2) Reaction mixtures for each protease were prepared by adding the protease to 0.1M Hepes, pH 7.5. The experimental samples were then preincubated for 30 minutes at 22° C. with 1 mM of the inhibitors. At the end of the 30 minute pre-incubation, the chromogenic substrate Suc-Ala-Ala-Pro-Leu-p-Na at a final concentration of 1 mM was added to each sample. The enzyme activity in the samples was monitored by measuring the release of pNA from the chromogenic substrate at 22° C. during a 10 minute reaction time. The enzyme activity in each experimental sample as a percentage of the enzyme activity in the control sample which was taken to be 100% was then determined."}, "[3]": {"target": "T2, A. fumigatus Serine Protease (Aspergillus fumigatus, UniProt P28296)", "T2 construct": "The extracellular serine proteases of A. fumigatus and A. flavus were purified from 5 day cultures; endogenous in cells; host or cells: Aspergillus fumigatus 5-day culture, extracellular fluid, bacitracin-Sepharose 4B", "T2 sequence (P28296 122-403)": "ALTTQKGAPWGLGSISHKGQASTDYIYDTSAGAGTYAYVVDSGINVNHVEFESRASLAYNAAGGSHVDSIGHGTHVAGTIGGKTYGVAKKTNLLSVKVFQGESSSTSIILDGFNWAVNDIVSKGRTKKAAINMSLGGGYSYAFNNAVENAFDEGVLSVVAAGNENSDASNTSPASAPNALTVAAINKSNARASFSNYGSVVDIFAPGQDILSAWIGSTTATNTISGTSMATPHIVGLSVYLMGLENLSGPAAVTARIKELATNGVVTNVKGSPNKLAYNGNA", "assay": "Residual serine protease activity after preincubation with serine protease inhibitors", "assay_type": "biochemical", "conditions": "for Serine protease (SP) activity (%), A. fumigatus Serine Protease: inhibitor 1 mM, pH 7.5, 30 min preincubation at 22° C., control = 100%; for Prevention of hydrolysis of Suc-Ala-Ala-Pro-Leu-pNA by A. fumigatus serine protease (in words): summary of Table 3", "description": "as §1, §2"}, "[4]": {"target": "porcine pancreatic elastolytic serine protease (Sus scrofa, UniProt P00772)", "sequence (P00772 27-266)": "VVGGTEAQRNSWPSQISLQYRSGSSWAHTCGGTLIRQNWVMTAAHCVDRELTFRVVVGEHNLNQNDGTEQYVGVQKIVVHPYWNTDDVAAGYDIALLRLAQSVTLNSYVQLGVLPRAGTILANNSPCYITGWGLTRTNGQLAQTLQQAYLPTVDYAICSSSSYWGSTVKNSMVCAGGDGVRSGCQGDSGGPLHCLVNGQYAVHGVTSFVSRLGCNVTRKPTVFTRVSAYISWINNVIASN", "assay": "Residual serine protease activity after preincubation with serine protease inhibitors", "assay_type": "biochemical", "conditions": "for Reduction of the activity of porcine serine protease (in words): summary of Table 3", "method": "as §2"}, "[5]": {"conditions": "statement without test; cited from earlier work"}, "[6]": {"conditions": "background statement; cited from earlier work"}, "[7]": {"assay": "Toxicity of the composition in irradiated, uninoculated mice", "assay_type": "in vivo, Balb/c mice", "conditions": "Experiment 1, seven 10 μl treatments of the 50 mg/ml composition over 48 hours", "method": "Tests were conducted to assess the effect of treatment with the pharmaceutical compositions of the present invention on the pathogenesis of invasive pulmonary aspergillosis in immunocompromised animals. To prevent secondary bacterial or viral infections in the treated and control animals, pathogen-free eight-week old female Balb/c mice were housed in a Bioclean laminar flow hood and provided with oxytetracylcine (100 mg/l)-neomycin sulfate (10 mg/l), pH 2.5, from 7 days prior to irradiation until the end of each experiment. Following seven days of treatment with the antibiotics, one group of animals was made immunodeficient by exposure to 400 rads of gamma radiation from a Cesium 137 source.\nTo test the toxicity of the pharmaceutical composition of example 1, a second group of irradiated mice, inoculated with 30 ul of Tween alone were treated with a […] the pharmaceutical composition from example 1 according to the same schedule for a total of seven treatments.\nTwenty-five, irradiated, uninoculated animals were also treated with […] of the pharmaceutical composition of example 4 according to the same schedule to assess the toxicity of the composition containing potato protease inhibitor in immunocompromised animals. The effect of treatment with the pharmaceutical composition of example 4 on the survival of uninoculated and aspergillus-inoculated animals is shown in Table 7."}, "[8]": {"target": "A. fumigatus elastolytic serine protease (Aspergillus fumigatus, UniProt P28296)", "sequence (P28296 122-403)": "as the sequence (P28296 122-403) above", "assay": "Inhibition constants (Ki) of reversible inhibitors for A. fumigatus elastolytic serine protease, chromogenic substrate", "conditions": "summary of Table 2", "procedure": "as §3, §4"}, "[9]": {"conditions": "inhibitor 1 mM, pH 7.5, 30 min preincubation at 22° C., control = 100%"}}, "note": "Counter-ions that a name gives are not always drawn."}
{"molecule": "A. fumigatus elastolytic serine protease (Aspergillus fumigatus Af293)", "values": [{"measurement": "Km", "setting": "[1]", "result": 350, "unit": "µM"}]}
{"molecule": "O=S(=O)(F)Cc1ccccc1", "note": "[PMSF]", "values": [{"measurement": "Serine protease (SP) activity (%), A. flavus Serine Protease", "setting": "[2]; [9]", "result": 0, "unit": "%"}, {"measurement": "Prevention of hydrolysis of Suc-Ala-Ala-Pro-Leu-pNA by A. flavus serine protease (in words)", "setting": "[2]", "result": "reduced the enzymatic activity"}, {"measurement": "Serine protease (SP) activity (%), A. fumigatus Serine Protease", "setting": "[3]", "result": 0.89, "unit": "%"}, {"measurement": "Prevention of hydrolysis of Suc-Ala-Ala-Pro-Leu-pNA by A. fumigatus serine protease (in words)", "setting": "[3]", "result": "reduced the enzymatic activity"}, {"measurement": "Serine protease (SP) activity (%), Porcine pancreas Serine Protease", "setting": "[4]; [9]", "result": 0, "unit": "%"}, {"measurement": "Reduction of the activity of porcine serine protease (in words)", "setting": "[4]", "result": "reduced the enzymatic activity"}, {"measurement": "Toxicity (in words)", "setting": "[5]", "result": "highly toxic"}]}
{"molecule": "A. flavus elastolytic serine protease (Aspergillus flavus)", "values": [{"measurement": "Km", "setting": "[1]", "result": 570, "unit": "µM"}]}
{"molecule": "CO[C@H]1C(=O)N2C(C(=O)N3CCC[C@H]3C(=O)O)=C(COC(C)=O)CS(=O)(=O)[C@H]12", "note": "[L658,758, 4-carboxamido-substituted cephem]", "values": [{"measurement": "Serine protease (SP) activity (%), A. flavus Serine Protease", "setting": "[2]; [9]", "result": 91, "unit": "%"}, {"measurement": "Prevention of hydrolysis of Suc-Ala-Ala-Pro-Leu-pNA by A. flavus serine protease (in words)", "setting": "[2]", "result": "ineffective"}, {"measurement": "Serine protease (SP) activity (%), A. fumigatus Serine Protease", "setting": "[3]", "result": 93, "unit": "%"}, {"measurement": "Prevention of hydrolysis of Suc-Ala-Ala-Pro-Leu-pNA by A. fumigatus serine protease (in words)", "setting": "[3]", "result": "ineffective"}, {"measurement": "Serine protease (SP) activity (%), Porcine pancreas Serine Protease", "setting": "[4]; [9]", "result": 6.6, "unit": "%"}, {"measurement": "Reduction of the activity of porcine serine protease (in words)", "setting": "[4]", "result": "effective at reducing the activity"}]}
{"molecule": "CCC[C@@H](NC(=O)N1C(=O)C(CC)(CC)[C@@H]1Oc1ccc(CC(=O)O)cc1)c1ccc(C)cc1", "note": "[L680,833, (S-(R*,S*))-4-((3,3-diethyl-1-((1-(4-methyl-phenyl)butylamino)carbonyl)-4-oxo-2-azetidinyl)oxy)-benzeneacetic acid 2-amino-2-methyl-1-propanol salt]", "values": [{"measurement": "activity at 1000 µM", "setting": "[2]; inhibitor 1 mM, pH 7.5, 30 min preincubation at 22° C., control = 100%, read-out: Serine protease (SP) activity (%), A. flavus Serine Protease", "result": 89, "unit": "%"}, {"measurement": "Prevention of hydrolysis of Suc-Ala-Ala-Pro-Leu-pNA by A. flavus serine protease (in words)", "setting": "[2]", "result": "ineffective"}, {"measurement": "activity at 1000 µM", "setting": "[3]; pH 7.5, read-out: Serine protease (SP) activity (%), A. fumigatus Serine Protease", "result": 93, "unit": "%"}, {"measurement": "Prevention of hydrolysis of Suc-Ala-Ala-Pro-Leu-pNA by A. fumigatus serine protease (in words)", "setting": "[3]", "result": "ineffective"}, {"measurement": "activity at 1000 µM", "setting": "[4]; inhibitor 1 mM, pH 7.5, 30 min preincubation at 22° C., control = 100%, read-out: Serine protease (SP) activity (%), Porcine pancreas Serine Protease", "result": 12, "unit": "%"}, {"measurement": "Reduction of the activity of porcine serine protease (in words)", "setting": "[4]", "result": "effective at reducing the activity"}]}
{"molecule": "C[C@@H]1[C@H](O)[C@@H](C)/C=C/C=C/C=C/C=C/C=C/C=C/C=C/[C@H](O[C@@H]2O[C@H](C)[C@@H](O)[C@H](N)[C@@H]2O)C[C@@H]2O[C@](O)(C[C@@H](O)C[C@@H](O)[C@H](O)CC[C@@H](O)C[C@@H](O)CC(=O)O[C@H]1C)C[C@H](O)[C@H]2C(=O)O", "note": "[amphotericin B]", "values": [{"measurement": "Nephrotoxicity", "setting": "[6]", "result": "serious side effect"}]}
{"molecule": "SSI: protein produced and secreted by streptomyces, purified from Streptomyces albogriseolus strains (protein, UniProt P01006 32-144, looked up) Subtilisin inhibitor: DAPSALYAPSALVLTVGKGVSATTAAPERAVTLTCAPGPSGTHPAAGSACADLAAVGGDLNALTRGEDVMCPMVYDPVLLTVDGVWQGKRVSYERVFSNECEMNAHGSSVFAF", "values": [{"measurement": "Mortality of treated, uninoculated, immunocompromised animals", "setting": "[7]", "result": "no mortality"}, {"measurement": "Inhibition of the elastolytic serine protease from A. fumigatus (in words)", "setting": "[8]", "result": "greatest inhibitory effect"}]}
